Molecules are shown by their SMILES. Calls of active or inactive are those of the source. The calls are words filed in the database; no cut-off is given here.

The experiment deals with T1, Alpha-amylase 1A (Homo sapiens) (UniProt P0DUB6).
T1 sequence (whole entry): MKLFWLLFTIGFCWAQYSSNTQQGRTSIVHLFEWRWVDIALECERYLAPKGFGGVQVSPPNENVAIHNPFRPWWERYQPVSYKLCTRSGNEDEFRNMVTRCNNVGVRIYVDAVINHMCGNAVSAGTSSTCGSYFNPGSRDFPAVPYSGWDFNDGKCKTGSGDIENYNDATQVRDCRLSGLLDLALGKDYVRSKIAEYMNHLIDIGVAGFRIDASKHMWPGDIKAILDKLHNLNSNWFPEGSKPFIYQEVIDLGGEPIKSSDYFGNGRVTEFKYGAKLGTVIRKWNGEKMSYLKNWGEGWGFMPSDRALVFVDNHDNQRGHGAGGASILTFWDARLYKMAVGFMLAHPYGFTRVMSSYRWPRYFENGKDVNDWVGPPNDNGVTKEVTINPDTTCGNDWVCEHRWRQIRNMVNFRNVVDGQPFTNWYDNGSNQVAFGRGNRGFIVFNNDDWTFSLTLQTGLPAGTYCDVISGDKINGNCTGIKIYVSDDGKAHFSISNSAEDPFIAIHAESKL
Briefly: Activity of human saliva alpha-amylase assessed as decrease in fluorescence intensity measured for every 3 mins for 30 mins by FRET analysis.
Consider `CN(C)c1cccc2c(S(=O)(=O)NCCSCCCCCS[C@@H]3O[C@H](CO)[C@@H](O[C@H]4O[C@H](CO)[C@@H](O[C@H]5O[C@H](CO)[C@@H](O[C@H]6O[C@H](CO)[C@@H](O[C@H]7O[C@H](CO)[C@@H](O[C@H]8O[C@H](CO)[C@@H](O[C@H]9O[C@H](COCc%10ccc%11ccccc%11c%10)[C@@H](O)[C@H](O)[C@H]9O)[C@H](O)[C@H]8O)[C@H](O)[C@H]7O)[C@H](O)[C@H]6O)[C@H](O)[C@H]5O)[C@H](O)[C@H]4O)[C@H](O)[C@H]3O)cccc12`, for which the outcome was Active.

Regarding `CN(C)c1cccc2c(S(=O)(=O)NCCSCCCCCS[C@@H]3O[C@H](CO)[C@@H](O[C@H]4O[C@H](COCc5ccc6ccccc6c5)[C@@H](O)[C@H](O)[C@H]4O)[C@H](O)[C@H]3O)cccc12`, the result was inactive.

With `CN(C)c1cccc2c(S(=O)(=O)NCCSCCCCCS[C@@H]3O[C@H](CO)[C@@H](O[C@H]4O[C@H](CO)[C@@H](O[C@H]5O[C@H](CO)[C@@H](O[C@H]6O[C@H](COCc7ccc8ccccc8c7)[C@@H](O)[C@H](O)[C@H]6O)[C@H](O)[C@H]5O)[C@H](O)[C@H]4O)[C@H](O)[C@H]3O)cccc12`, the outcome was Active.

For `CN(C)c1cccc2c(S(=O)(=O)NCCSCCCCCS[C@@H]3O[C@H](CO)[C@@H](O[C@H]4O[C@H](CO)[C@@H](O[C@H]5O[C@H](COCc6ccc7ccccc7c6)[C@@H](O)[C@H](O)[C@H]5O)[C@H](O)[C@H]4O)[C@H](O)[C@H]3O)cccc12`, the result was inactive.

Regarding `CN(C)c1cccc2c(S(=O)(=O)NCCSCCCCCS[C@@H]3O[C@H](CO)[C@@H](O[C@H]4O[C@H](CO)[C@@H](O[C@H]5O[C@H](CO)[C@@H](O[C@H]6O[C@H](CO)[C@@H](O[C@H]7O[C@H](CO)[C@@H](O[C@H]8O[C@H](COCc9ccc%10ccccc%10c9)[C@@H](O)[C@H](O)[C@H]8O)[C@H](O)[C@H]7O)[C@H](O)[C@H]6O)[C@H](O)[C@H]5O)[C@H](O)[C@H]4O)[C@H](O)[C@H]3O)cccc12`, the outcome was Active.

With `CN(C)c1cccc2c(S(=O)(=O)NCCSCCCCCS[C@@H]3O[C@H](CO)[C@@H](O[C@H]4O[C@H](CO)[C@@H](O[C@H]5O[C@H](CO)[C@@H](O[C@H]6O[C@H](CO)[C@@H](O[C@H]7O[C@H](COCc8ccc9ccccc9c8)[C@@H](O)[C@H](O)[C@H]7O)[C@H](O)[C@H]6O)[C@H](O)[C@H]5O)[C@H](O)[C@H]4O)[C@H](O)[C@H]3O)cccc12`, the result was Active.
